Results: the NIST ThermoML archive (doi:10.1016/j.jct.2010.04.001)
“And” between values parts separate entries of the source, which are not always exact repeats. Equal values may be shown once. Numbers after ± are expanded uncertainties.

Settings: Crystal, Calculated from knudsen effusion weight loss

O=C(c1ccc[nH]1)C(Cl)(Cl)Cl [2-trichloroacetyl-1H-pyrrole]
Settings | vapor or sublimation pressure
295.12 K | 0.000103 ± 5e-06 kPa and 9.92e-05 ± 5e-06 kPa and 0.000101 ± 5e-06 kPa
297.17 K | 0.000132 ± 7e-06 kPa and 0.000129 ± 6e-06 kPa
299.22 K | 0.000169 ± 8e-06 kPa and 0.000165 ± 8e-06 kPa and 0.000162 ± 8e-06 kPa
301.14 K | 0.000213 ± 1.1e-05 kPa and 0.000218 ± 1.1e-05 kPa
303.23 K | 0.000274 ± 1.4e-05 kPa and 0.000272 ± 1.4e-05 kPa and 0.000268 ± 1.3e-05 kPa
305.2 K | 0.000344 ± 1.7e-05 kPa and 0.000336 ± 1.7e-05 kPa and 0.000335 ± 1.7e-05 kPa
307.1 K | 0.000434 ± 2.2e-05 kPa and 0.00043 ± 2.2e-05 kPa and 0.000424 ± 2.1e-05 kPa
309.13 K | 0.000539 ± 2.7e-05 kPa and 0.000531 ± 2.7e-05 kPa and 0.000527 ± 2.6e-05 kPa
311.21 K | 0.000674 ± 3.4e-05 kPa and 0.000661 ± 3.3e-05 kPa and 0.000652 ± 3.3e-05 kPa
313.11 K | 0.000861 ± 4.3e-05 kPa and 0.000843 ± 4.2e-05 kPa and 0.000837 ± 4.2e-05 kPa
315.16 K | 0.00106 ± 0.00011 kPa and 0.001043 ± 0.00011 kPa and 0.001028 ± 0.0001 kPa
317.2 K | 0.001327 ± 0.00014 kPa and 0.001289 ± 0.00014 kPa and 0.00127 ± 0.00013 kPa

O=C(c1ccc[nH]1)C(F)(F)F [2-trifluoroacetylpyrrole]
Settings | vapor or sublimation pressure
263.19 K | 0.000433 ± 2.2e-05 kPa and 0.000414 ± 2.1e-05 kPa and 0.000406 ± 2e-05 kPa
264.14 K | 0.00048 ± 2.4e-05 kPa and 0.000469 ± 2.3e-05 kPa
265.11 K | 0.000533 ± 2.7e-05 kPa and 0.000531 ± 2.7e-05 kPa
266.12 K | 0.000597 ± 3e-05 kPa and 0.00064 ± 3.2e-05 kPa and 0.000623 ± 3.1e-05 kPa
267.12 K | 0.000716 ± 3.6e-05 kPa and 0.00069 ± 3.5e-05 kPa and 0.00067 ± 3.4e-05 kPa
268.12 K | 0.000809 ± 4.1e-05 kPa and 0.000796 ± 4e-05 kPa and 0.000771 ± 3.9e-05 kPa
269.11 K | 0.0009 ± 4.5e-05 kPa and 0.000894 ± 4.5e-05 kPa and 0.000866 ± 4.3e-05 kPa
270.11 K | 0.001022 ± 0.0001 kPa and 0.000993 ± 5e-05 kPa
271.13 K | 0.001147 ± 0.00012 kPa and 0.00113 ± 0.00012 kPa and 0.001101 ± 0.00011 kPa
